Assay: Cytotoxicity against human PC3 cells assessed as inhibition of cell growth after 48 hrs by sulforhodamine B assay
Assay type: functional, cell-based
Details: PC-3, 48 h

Structure (SMILES): O=C1c2ccccc2C(=O)c2cc3oc(SCc4cccc([N+](=O)[O-])c4)nc3cc21
- IC50: > 30 µM

Structure (SMILES): O=C1c2ccccc2C(=O)c2cc3oc(SCc4ccccc4[N+](=O)[O-])nc3cc21
- IC50: > 30 µM

Structure (SMILES): O=C(CCN1CCCCC1)Nc1cc2c(cc1O)C(=O)c1ccccc1C2=O
- IC50: > 30 µM

Structure (SMILES): O=C(CCN1CCOCC1)Nc1cc2c(cc1O)C(=O)c1ccccc1C2=O
- IC50: > 30 µM

Structure (SMILES): O=C1c2ccccc2C(=O)c2cc3oc(SCCN4CCOCC4)nc3cc21
- IC50: > 30 µM

Structure (SMILES): O=C1c2ccccc2C(=O)c2cc3oc(SCc4ccccc4)nc3cc21
- IC50: > 30 µM
